Results taken from publication PMC6943619, “Synthesis and Pharmacological Evaluation of Hybrids Targeting Opioid and Neurokinin Receptors” (Molecules, 2019).
Where a SMILES comes first, the peptide text is derived from it. Bridges are numbered along the chain shown (N, C = ends). [ ]: non-standard residue; d: D form. Nle = CCCC[C@H](N)C(=O)O

Key:
[1] = molecular target: T1, human opioid receptor MOR (Homo sapiens, UniProt P35372); experiment: Radioligand binding assay, displacement of [3H]DAMGO; settings: displacement of [3H]DAMGO from membranes of CHO cells transfected with human MOR, 50 mM Tris/HCl pH 7.4, 0.5% BSA, peptidase inhibitors, 2 h at 25 °C, mean ± SEM, n ≥ 3
T1 construct: purchased PerkinElmer (Krakow, Poland); host or cells: CHO cell membranes
Procedure: (§1) A radioligand binding assay was performed to determine the opioid receptor (OR) binding affinities of the novel analogs using commercially available membranes of Chinese hamster ovary cells (CHO) transfected with human recombinant ORs. [^3H]DAMGO, [^3H]deltorphin-2, and [^3H]U-69593 were used as the radioligands for MOR, DOR, and KOR, respectively. Tyr-[D-Lys-Phe-Phe-Asp]NH2 (1) was used as a reference opioid compound. […] None of them acquired significant DOR affinity.
(§2) To determine the affinity of peptide analogs to respective receptors, competition binding experiments were performed, as described in detail elsewhere.
(§3) Commercial membranes of CHO cells stably expressing either human ORs or NK1 receptor were used. [^3H]DAMGO, [^3H]deltorphin-2, and [^3H]U-69593 were employed as the competing radioligands for MOR, DOR, and KOR, respectively, while [^3H][Sar^9, Met(O2)^11]SP was utilized for the NK1 receptor. Membranes were incubated in a 0.5 mL volume of 50 mM Tris/HCl (pH = 7.4), 0.5% bovine serum albumin (BSA), with a number of peptidase inhibitors (bacitracin, bestatin, captopril) and various concentrations of radioligands for 2 h at 25 °C. Nonspecific binding was assessed in the presence of […] naloxone for ORs or SP for NK1 receptor.
(§4) The pharmacological terminology adopted in this paper is consistent with International Union of Basic and Clinical Pharmacology (IUPHAR) recommendations. Concentration–response curves were analyzed by nonlinear regression using Graph Pad Prism 6.0 (La Jolla, CA, USA). […]. […] Concentration–response curves were fitted with the four-parameter logistic nonlinear regression model (1) Effect=baseline+Emax−baseline/1+10^logEC50−X·n where X is the agonist concentration and n is the Hill coefficient. Ligand efficacy was expressed as intrinsic activity (α) calculated as a ratio of the peptide Emax to the Emax of the standard agonist (Supplementary Materials, Figure S7). […]. All statistical analyses were performed using Graph Pad Prism 6.0 (La Jolla, CA, USA). Differences between groups were analyzed with one-way ANOVA and a post hoc multiple comparison by the Student–Newman–Keuls test. A probability level of 0.05 or smaller was used to indicate statistical significance.

[2] = molecular target: T2, human opioid receptor DOR (Homo sapiens, UniProt P41143); experiment: Radioligand binding assay, displacement of [3H]deltorphin-2; settings: displacement of [3H]deltorphin-2 from membranes of CHO cells transfected with human DOR, 50 mM Tris/HCl pH 7.4, 0.5% BSA, peptidase inhibitors, 2 h at 25 °C, mean ± SEM, n ≥ 3
T2 construct: purchased PerkinElmer (Krakow, Poland); host or cells: CHO cell membranes
Procedure: A radioligand binding assay was performed to determine the opioid receptor (OR) binding affinities of the novel analogs using commercially available membranes of Chinese hamster ovary cells (CHO) transfected with human recombinant ORs. […] Tyr-[D-Lys-Phe-Phe-Asp]NH2 (1) was used as a reference opioid compound.
as §2
(§5) Commercial membranes of CHO cells stably expressing either human ORs or NK1 receptor were used. […] Membranes were incubated in a 0.5 mL volume of 50 mM Tris/HCl (pH = 7.4), 0.5% bovine serum albumin (BSA), with a number of peptidase inhibitors (bacitracin, bestatin, captopril) and various concentrations of radioligands for 2 h at 25 °C.
(§6) The pharmacological terminology adopted in this paper is consistent with International Union of Basic and Clinical Pharmacology (IUPHAR) recommendations. Concentration–response curves were analyzed by nonlinear regression using Graph Pad Prism 6.0 (La Jolla, CA, USA). […] Concentration–response curves were fitted with the four-parameter logistic nonlinear regression model (1) Effect=baseline+Emax−baseline/1+10^logEC50−X·n where X is the agonist concentration and n is the Hill coefficient. Ligand efficacy was expressed as intrinsic activity (α) calculated as a ratio of the peptide Emax to the Emax of the standard agonist (Supplementary Materials, Figure S7). […] All statistical analyses were performed using Graph Pad Prism 6.0 (La Jolla, CA, USA). Differences between groups were analyzed with one-way ANOVA and a post hoc multiple comparison by the Student–Newman–Keuls test. A probability level of 0.05 or smaller was used to indicate statistical significance.

[3] = molecular target: T3, human MOR (Homo sapiens, UniProt P35372); experiment: Calcium mobilization functional assay, agonist mode; format: cell-based; settings: for MOR α ± SEM: efficacy (intrinsic activity), Emax relative to EM-2, mean ± SEM
T3 construct: expressed in transfected cells; host or cells: CHO cells (University of Ferrara), co-expressing Gαqi5

[4] = molecular target: T4, human opioid receptor KOR (Homo sapiens, UniProt P41145); experiment: Radioligand binding assay, displacement of [3H]U-69593; settings: displacement of [3H]U-69593 from membranes of CHO cells transfected with human KOR, 50 mM Tris/HCl pH 7.4, 0.5% BSA, peptidase inhibitors, 2 h at 25 °C, mean ± SEM, n ≥ 3
T4 construct: purchased PerkinElmer (Krakow, Poland); host or cells: CHO cell membranes
Procedure: as §1, §2, §3, §4

[5] = molecular target: T5, human NK1 (Homo sapiens, UniProt P25103); experiment: Calcium mobilization functional assay, agonist mode, CHONK1 cells; format: cell-based; design: expressed in transfected cells; host or cells: CHO cells (gift of Prof. T. Costa, ISS, Rome); settings: for NK1 α ± SEM: efficacy (intrinsic activity), Emax relative to SP
[6] = molecular target: T5, human NK1; experiment: Radioligand binding assay, displacement of [3H][Sar9, Met(O2)11]SP; design: purchased PerkinElmer (Krakow, Poland); host or cells: CHO cell membranes; settings: displacement of [3H][Sar9, Met(O2)11]SP from membranes of CHO cells transfected with human NK1 receptor; 50 mM Tris/HCl pH 7.4, 0.5% BSA, peptidase inhibitors, 2 h at 25 °C; mean ± SEM, n ≥ 3; SEM
Procedure: The binding assay was also used to examine the affinity of the synthesized hybrids for NK1 in commercial membranes of CHO cells stably expressing human NK1.
as §2, §5, §6

[7] = system: mice; experiment: Writhing test (acetic acid, acute pain model); format: in vivo; settings: 5 mg/kg i.p., single injection 15 min before i.p. acetic acid (0.5%, 10 mL/kg), writhes counted 15 min, saline baseline about 35, average, n = 10
Procedure: The writhing test was used as an acute pain model. This test involves intraperitoneal (i.p.) injection of acetic acid which results in abdominal constriction, causing the mice to writhe. Peptides or saline (control) were administered i.p. over a concentration range of 0.3 to 5 mg/kg at 15 min before the injection of acetic acid (0.5%, 10 mL/kg). The baseline number of writhes in the saline-treated animals was about 35.
Peptides or vehicle were administered 15 min before the i.p. injection of acetic acid (0.5%, 10 mL/kg). The number of writhes was determined 5 min after acetic acid injection over a period of 15 min. The data represent mean ± SEM, n = 10.
Male Balb/c mice (Animal Facility of Nofer Institute of Occupational Medicine, Lodz, Poland) weighing 22–25 g were used in the study. The animals were housed under standard conditions (22 ± 1 °C, 12 h light/dark cycle) with food and water ad libitum for five days before the experiments.
Antinociceptive activity was assessed by the writhing test. Mice were divided into groups of 10 animals each. A single i.p. injection of saline or a tested compound (at doses 0.3, 1, 3, or 5 mg/kg) was followed (after 15 min) by the i.p. administration of acetic acid (0.65% in 0.9% NaCl, 10 mL/kg) [53]. After 5 min recovery, specific spontaneous behaviors characterized by elongation of the body (“writhes”) were counted for 15 min.

[8] = CHO cells co-expressing human MOR and Gαqi5, n = 5, SEM

T3 sequence (P35372 whole entry): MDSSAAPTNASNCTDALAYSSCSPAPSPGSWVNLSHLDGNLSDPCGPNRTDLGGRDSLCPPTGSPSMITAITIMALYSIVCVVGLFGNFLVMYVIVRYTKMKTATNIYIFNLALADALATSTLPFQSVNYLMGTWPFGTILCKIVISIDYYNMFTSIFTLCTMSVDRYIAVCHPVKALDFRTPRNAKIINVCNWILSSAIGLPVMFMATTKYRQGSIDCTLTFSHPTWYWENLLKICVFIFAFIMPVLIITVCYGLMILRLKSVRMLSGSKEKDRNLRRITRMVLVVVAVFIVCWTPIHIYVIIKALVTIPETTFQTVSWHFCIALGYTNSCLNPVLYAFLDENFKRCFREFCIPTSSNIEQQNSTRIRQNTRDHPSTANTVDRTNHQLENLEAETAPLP
T5 sequence (P25103 whole entry): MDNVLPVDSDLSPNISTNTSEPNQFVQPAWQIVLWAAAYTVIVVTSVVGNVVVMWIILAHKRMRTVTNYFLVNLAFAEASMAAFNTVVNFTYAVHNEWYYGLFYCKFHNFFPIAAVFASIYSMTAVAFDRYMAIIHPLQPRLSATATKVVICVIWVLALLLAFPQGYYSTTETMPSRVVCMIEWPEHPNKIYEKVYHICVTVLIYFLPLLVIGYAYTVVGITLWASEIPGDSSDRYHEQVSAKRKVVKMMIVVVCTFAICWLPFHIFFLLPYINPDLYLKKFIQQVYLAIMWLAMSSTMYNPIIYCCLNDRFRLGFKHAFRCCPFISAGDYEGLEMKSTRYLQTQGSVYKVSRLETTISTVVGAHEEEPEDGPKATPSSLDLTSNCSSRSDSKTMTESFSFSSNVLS
T1 sequence (P35372 whole entry): as the sequence (P35372 whole entry) above
T4 sequence (P41145 whole entry): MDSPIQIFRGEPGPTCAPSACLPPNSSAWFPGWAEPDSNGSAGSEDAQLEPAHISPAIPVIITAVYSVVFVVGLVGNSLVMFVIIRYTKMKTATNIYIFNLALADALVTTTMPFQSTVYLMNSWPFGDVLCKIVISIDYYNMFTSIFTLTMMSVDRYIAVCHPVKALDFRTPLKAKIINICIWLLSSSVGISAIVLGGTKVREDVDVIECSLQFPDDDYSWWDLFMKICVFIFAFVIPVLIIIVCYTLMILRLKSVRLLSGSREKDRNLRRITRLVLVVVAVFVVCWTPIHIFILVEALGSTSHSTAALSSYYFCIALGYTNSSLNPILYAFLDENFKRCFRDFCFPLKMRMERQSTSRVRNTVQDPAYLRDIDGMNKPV
T2 sequence (P41143 whole entry): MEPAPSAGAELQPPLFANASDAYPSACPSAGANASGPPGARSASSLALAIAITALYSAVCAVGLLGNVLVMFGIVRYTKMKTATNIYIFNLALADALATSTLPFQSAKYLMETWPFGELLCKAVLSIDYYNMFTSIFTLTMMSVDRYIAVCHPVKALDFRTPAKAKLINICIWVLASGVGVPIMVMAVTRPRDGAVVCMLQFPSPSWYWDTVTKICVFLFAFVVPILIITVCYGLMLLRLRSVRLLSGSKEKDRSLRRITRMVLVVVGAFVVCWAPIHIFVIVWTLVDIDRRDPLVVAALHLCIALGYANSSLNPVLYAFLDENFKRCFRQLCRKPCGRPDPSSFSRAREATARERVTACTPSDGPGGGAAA

Structure (SMILES): CCCC[C@H](NC(=O)[C@H](CC(C)C)NC(=O)[C@@H](Cc1c[nH]c2ccccc12)NC(=O)[C@H](Cc1ccccc1)NC(=O)[C@@H](Cc1c[nH]c2ccccc12)NC(=O)[C@H](CC(N)=O)NC(=O)[C@@H]1CC(=O)NCCCC[C@@H](NC(=O)[C@@H](N)Cc2ccc(O)cc2)C(=O)N[C@@H](Cc2ccccc2)C(=O)N[C@@H](Cc2ccccc2)C(=O)N1)C(N)=O [compound 2, Tyr-[D-Lys-Phe-Phe-Asp]-Asn-D-Trp-Phe-D-Trp-Leu-Nle-NH2] (H-Y[dK]FFDN[dW]F[dW]L[Nle]-NH2; lactam 2-5)
- Ki [1]: 5.99 ± 0.7 nM
- Ki [2]: 202 ± 2.5 nM
- EC50 ([3]; CHO cells co-expressing human MOR and Gαqi5, Fluo-4 AM calcium signal, n = 5, read-out: MOR pEC50 (CL95%) (converted)): 31.6 nM
- lower potency at MOR as compared with 1 ([3]; calcium mobilization, from pEC50 values): 30 fold
- MOR α ± SEM ([3]; CHO cells co-expressing human MOR and Gαqi5, n = 5): 0.66
- MOR α ± SEM [3, 8]: 0.66 ± 0.04
- Ki [4]: 7.46 ± 0.6 nM
- NK1 pEC50 (CL95%) ([5]; CHO cells expressing human NK1 (CHONK1), Fluo-4 AM calcium signal, N = 5): Inactive
- NK1 α ± SEM ([5]; CHONK1 cells, N = 5): Inactive
- Ki [6]: 10.5 ± 0.6 nM
- number of writhes [7]: 12.4

Structure (SMILES): CSCC[C@H](NC(=O)[C@H](CC(C)C)NC(=O)CNC(=O)[C@H](Cc1ccccc1)NC(=O)[C@H](Cc1ccccc1)NC(=O)[C@H](CCC(N)=O)NC(=O)[C@@H]1CC(=O)NCCCC[C@@H](NC(=O)[C@@H](N)Cc2ccc(O)cc2)C(=O)N[C@@H](Cc2ccccc2)C(=O)N[C@@H](Cc2ccccc2)C(=O)N1)C(N)=O [compound 4, Tyr-[D-Lys-Phe-Phe-Asp]-Gln-Phe-Phe-Gly-Leu-Met-NH2] (H-Y[dK]FFDQFFGLM-NH2; lactam 2-5)
- Ki [1]: 7.98 ± 0.97 nM
- Ki [2]: 225 ± 14 nM
- MOR α ± SEM [3, 8]: 0.90 ± 0.04
- Ki [4]: 10.8 ± 0.85 nM
- EC50 [5]: 3.55 nM
- lower potency at NK1 than SP ([5]; calcium mobilization, CHONK1 cells, from pEC50 values): fourfold
- NK1 α ± SEM ([5]; CHONK1 cells, N = 5, SEM): 0.96 ± 0.05
- Ki [6]: 15.6 ± 1.23 nM
- number of writhes [7]: 4.5
